Experimental data as given in US11186577B2, “Vasopressin receptor antagonists and products and methods related thereto” (BlackThorn Therapeutics, Inc., priority 2017, dated 2021).
Where two headings read alike, the source gives them in different places.

Assays:
[1] = target: human Arginine Vasopressin Receptor 1a (AVPR1a) (Homo sapiens (Human), UniProt P37288); assay: Vasopressin V1A receptor antagonist assay (AVP-evoked calcium, FLIPR, CHO-AVPR1a cells); assay type: cell-based
Outline: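 Antagonism measured as reduction of AVP (EC80, set each assay day) calcium response on FLIPR in dye-loaded CHO-AVPR1a cells. Compounds, 3 μM top in 10-point 1:3 dilution, in duplicate, added 15 min before agonist at 37° C.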

[2] = target: human Oxytocin Receptor (hOTR) (Homo sapiens (Human), UniProt P30559); assay: Oxytocin receptor antagonist assay (oxytocin-evoked calcium, FLIPR, CHEM-1-hOTR cells); assay type: cell-based; details: read-out: OT IC50
Chain of human Oxytocin Receptor (hOTR) (P30559 whole entry): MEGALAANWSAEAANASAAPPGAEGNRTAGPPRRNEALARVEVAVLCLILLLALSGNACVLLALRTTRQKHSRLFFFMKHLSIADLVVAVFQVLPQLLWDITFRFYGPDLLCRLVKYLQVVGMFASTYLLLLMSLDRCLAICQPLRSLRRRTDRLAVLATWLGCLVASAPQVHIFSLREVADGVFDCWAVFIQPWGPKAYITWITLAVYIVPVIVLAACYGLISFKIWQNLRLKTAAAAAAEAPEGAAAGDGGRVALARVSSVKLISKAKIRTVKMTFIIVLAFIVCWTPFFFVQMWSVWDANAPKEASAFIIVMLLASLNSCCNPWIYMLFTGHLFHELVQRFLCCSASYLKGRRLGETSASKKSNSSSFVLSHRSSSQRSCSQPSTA
Procedure: This assay was performed in CHEM-1 cells expressing the human Oxytocin Receptor (hOTR) to determine the inhibitory effect of the compounds of the invention on the human Oxytocin receptor. Oxytocin evokes an increase in intracellular calcium in CHEM-1-hOTR cells which is measured in a fluorescence assay on the FLIPR^TETRA using calcium sensitive dyes. Test compounds were assessed for their ability to affect the magnitude of the response to oxytocin, with antagonists showing a concentration-dependent reduction in the oxytocin-mediated fluorescence.
CHEM-1-hOTR ready was used to assay frozen cells (Eurofins #HTS090RTA) which are supplied with a proprietary Media Component.
Cells were thawed in a 37° C. water bath and diluted with the supplied Media Component to a final volume of 10 ml. The cell suspension was centrifuged at 1000 rpm for 3 min at room temperature and the supernatant was discarded. The cell pellet was resuspended in Media Component (10.5 ml) and the cells (25 μL) were dispensed into a poly-D-lysine coated black, clear bottomed, 384-well plate. The plates were incubated overnight at 37° C., 5% CO2.
(§1) At the start of each assay day the potency of oxytocin was assessed and an EC80 concentration was determined for subsequent compound profiling. Assays were performed using a two-step addition protocol on the FLIPR^TETRA; first addition of 5 μl of control or test compound at 10× final in assay buffer with 15 min incubation at 37° C., 5% CO2 followed by 10 μl of oxytocin at 6× final concentration in assay buffer. Changes in fluorescence were monitored for 3 min after both additions on the FLIPR^TETRA using 470-495 nm excitation and 515-575 nm emission wavelengths. The assay buffer consisted of HBSS (+Ca/+Mg) supplemented with 20 mM HEPES, and for the preparation of the oxytocin agonist only, 0.1% w/v bovine serum albumin. The assay was initiated by the removal of growth media from the cells and replaced with 45 μl of Calcium-6 dye (Molecular Devices) prepared at 1× in assay buffer. Cells were loaded with dye for 60-90 min at 37° C., 5% CO2 before initiation of the FLIPR^TETRA protocol. […] For compound profiling, test compounds were first serially diluted in DMSO (10-point curve, 1:3 dilutions) then diluted 33.3-fold in assay buffer prior to addition to the dye loaded cells on the FLIPR^TETRA. At the end of the incubation period 10 μl of oxytocin in assay buffer containing 0.1% BSA was added at the previously determined EC80 concentration.
In-plate controls for the assay include a L-368,899 concentration-response curve as the reference OTR antagonist and an oxytocin concentration-response curve to confirm the reproducibility of the EC80 used for the compound challenge.

MDR1 (P-glycoprotein) = assay: MDR1-MDCK effective efflux assay (Transwell, 10 μM, 1 hour), MDR1-MDCK cells; assay type: in vitro ADME; details: dog, MDCK-MDR1, pH 7.4, MDR1-MDCK cells, apical to basolateral (A>B), 10 μM, 1 hour; read-out: Papp AB MDR1
Procedure: (§2) The MDR1-MDCK effective efflux assay was performed as described in the BioFocus Standard Operating Procedure, ADME-SOP-56. Both wild-type (WT) and MDR1-MDCK cells (Solvo Biotechnology) were seeded onto 24-well Transwell plates at 2.35×10^5 cells per well and used in confluent monolayers after a 3 day culture at 37° C. under 5% CO2. For both cell types, test and control compounds (propranolol, vinblastine) were added (10 μM, 0.1% DMSO final, n=2) to donor compartments of the Transwell plate assembly in assay buffer (Hanks balanced salt solution supplemented with 25 mM HEPES, adjusted to pH 7.4) for both apical to basolateral (A>B) and basolateral to apical (B>A) measurements. Incubations were performed at 37° C., with samples removed from both donor and acceptor chambers at T=0 and 1 hour and compound analysed by mass spectrometry (LC-MS/MS) including an analytical internal standard.
(§3) Where V is the volume of each Transwell compartment (apical 125 basolateral 600 and concentrations are the relative MS responses for compound (normalized to internal standard) in the donor chamber before incubation and acceptor chamber at the end of the incubation. Area=area of cells exposed for drug transfer (0.33 cm2).
(§4) Efflux ratios (Papp B>A/Papp A>B) were calculated for each compound from the mean Papp values in each direction for both wild-type and MDR1-MDCK cells.
(§5) In order to confirm the involvement of MDR1 in any efflux seen, an “effective efflux ratio” (EER) was calculated by comparing compound efflux ratios (ER) in the two cell types, i.e. EER=ER(MDR1−MDCK)/ER(wild-type MDCK)
(§6) This ratio illustrates the effect of the over-expressed MDR1 normalised for the background movement of compound through the wild-type cells.
(§7) Lucifer Yellow (LY) was added to the apical buffer in all wells to assess viability of the cell layer. Compound recovery from the wells was determined from MS responses (normalized to internal standard) in donor and acceptor chambers at the end of incubation compared to response in the donor chamber pre-incubation.

[3] = MDR1-MDCK effective efflux assay (Transwell, 10 μM, 1 hour), wild-type MDCK cells; assay type: in vitro ADME; details: dog, MDCK, pH 7.4, wild-type MDCK cells, apical to basolateral (A>B), 10 μM, 1 hour; read-out: Papp AB WT
Procedure: as §2, §3, §4, §5, §6, §7

[4] = target: human Arginine Vasopressin Receptor 1b (AVPR1b) (Homo sapiens (Human), UniProt P47901); assay: Vasopressin V1B receptor antagonist assay (AVP-evoked calcium, FLIPR, CHO-AVPR1b cells); assay type: cell-based
Chain of human Arginine Vasopressin Receptor 1b (AVPR1b) (P47901 whole entry): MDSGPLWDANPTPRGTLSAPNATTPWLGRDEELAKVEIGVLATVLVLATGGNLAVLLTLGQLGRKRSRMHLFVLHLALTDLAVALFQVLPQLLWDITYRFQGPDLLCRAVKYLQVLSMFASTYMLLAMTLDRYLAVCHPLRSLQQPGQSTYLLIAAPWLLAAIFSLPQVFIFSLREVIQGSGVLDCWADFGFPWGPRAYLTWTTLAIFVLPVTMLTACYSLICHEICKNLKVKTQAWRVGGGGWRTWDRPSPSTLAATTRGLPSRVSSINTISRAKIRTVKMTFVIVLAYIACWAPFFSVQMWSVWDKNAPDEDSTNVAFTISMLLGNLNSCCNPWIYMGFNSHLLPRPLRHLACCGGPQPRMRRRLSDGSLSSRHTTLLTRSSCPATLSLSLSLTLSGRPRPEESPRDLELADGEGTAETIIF
Procedure: The purpose of the assay is to determine the inhibitory effect of synthesized compounds on the Vasopressin V1b receptor. The assay was performed in Chinese Hamster Ovary (CHO) cells expressing the human Arginine Vasopressin Receptor 1b (AVPR1b). Arginine Vasopressin (AVP) evokes an increase in intracellular calcium in CHO-AVPR1b cells which is measured in a fluorescence assay on the FLIPR^TETRA using calcium sensitive dyes. Test compounds were assessed for their ability to affect the magnitude of the response to AVP, with antagonists showing a concentration-dependent reduction in the AVP-mediated fluorescence.
CHO-AVPR1b cells were maintained in routine culture in T175 Flasks at 37° C., 5% CO2. The growth medium consisted of Ham's F12 media supplemented with 10% v/v fetal bovine serum, 1× non-essential amino acids, and 0.4 mg/ml Geneticin G418.
Cells were harvested from T175 flasks when they were 80-90% confluent by first washing the cell monolayer with PBS and then dissociated using trypsin 0.05%/EDTA (3 mL for a T175 Flask). The flasks were incubated at room temperature until the cells detached. To the cell suspension, 10 ml of growth media was added and the cell density determined using the Vi-Cell automated cell counter. The cells were spun at 1000 rpm for 3 minutes, then the supernatant was carefully removed and discarded. The cell pellet was re-suspended at 6.0e^5 cells/ml in growth media. 25 μL of cells in growth media was dispensed into each well (15,000 cells per well) of a poly-D-lysine coated black, clear bottomed, 384-well plate. The plates were incubated at 37° C., 5% CO2 overnight.
as §1, with “day,” for “day”, “AVP is” for “oxytocin was”, “concentration” for “concentration was”, “AVP” for “oxytocin”, “replacement” for “replaced”
In-plate controls for the assay include a Nelivaptan concentration-response curve as the reference V1b antagonist and an AVP concentration-response curve to confirm the reproducibility of the EC80 used for the compound challenge.

[5] = target: human Arginine Vasopressin Receptor V2 (AVPR2) (Homo sapiens (Human), UniProt P30518); assay: Vasopressin V2 receptor antagonist assay (cAMP TR-FRET, 1321N1 cells); assay type: cell-based
Chain of human Arginine Vasopressin Receptor V2 (AVPR2) (P30518 whole entry): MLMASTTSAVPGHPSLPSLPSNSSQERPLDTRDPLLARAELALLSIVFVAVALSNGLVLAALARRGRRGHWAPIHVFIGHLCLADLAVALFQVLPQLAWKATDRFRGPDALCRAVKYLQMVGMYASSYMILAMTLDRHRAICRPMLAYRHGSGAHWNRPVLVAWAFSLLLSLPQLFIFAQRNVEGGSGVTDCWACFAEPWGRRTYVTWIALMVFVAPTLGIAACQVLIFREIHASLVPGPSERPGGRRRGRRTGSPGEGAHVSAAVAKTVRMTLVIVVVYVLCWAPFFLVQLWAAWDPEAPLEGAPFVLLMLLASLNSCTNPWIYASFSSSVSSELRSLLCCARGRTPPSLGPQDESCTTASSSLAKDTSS
Procedure: The purpose of the assay was to determine the inhibitory effect of synthesized compounds on the Vasopressin receptor 2. […] Arginine Vasopressin (AVP) evokes an increase in intracellular cAMP in these cells which is measured in a TR-FRET assay using a Europium cAMP tracer and ULight labelled antibody reagents contained in a LANCE Ultra cAMP kit (Perkin Elmer #TRF0263). […] Test compounds were assessed for their ability to affect the magnitude of the response to AVP, with antagonists showing a concentration-dependent decrease in the AVP-mediated reduction in TR-FRET signal.
cAMPZen V2 assay ready cells were thawed at 37° C. and resuspended directly from frozen in 9 ml growth medium consisting of DMEM supplemented with 10% v/v fetal bovine serum, 1× non-essential amino acids, and 1 mM sodium pyruvate. Cells were spun at 1000 rpm for 3 minutes and the supernatant was carefully removed and discarded. The pellet was resuspended in 5 ml stimulation buffer and the cell density determined using the Vi-Cell automated cell counter. The cell suspension was diluted to a 0.2×10^6/ml suspension ready for plating. […] Stimulation buffer consisted of HBSS (+Ca/+Mg) supplemented with 5 mM HEPES, 0.1% BSA stabiliser and 0.5 mM IBMX.
At the start of each assay day the potency of AVP was assessed and an EC80 concentration determined for subsequent compound profiling. Assays were performed by first an addition of 2.5 μl of control or test compound at 4× final concentration in stimulation buffer followed by 2.5 μl of AVP at 4× final concentration in stimulation buffer. After a 1 hour reaction, detection reagents were added by first an addition of 5 μl EU-cAMP tracer, followed by 5 μl ULight-anti-cAMP both diluted as per the manufacturer's instructions. […] For compound profiling, test compounds were dispensed by the Labcyte Echo (10-point curve, 1:3 dilutions) in a target 0.1 μl volume then diluted 750-fold in stimulation buffer containing 3% DMSO prior to addition to the cells. At the end of the incubation period, 2.5 μl of AVP in stimulation buffer was added at the previously determined EC80 concentration.

Chain of human Arginine Vasopressin Receptor 1a (AVPR1a) (P37288 whole entry): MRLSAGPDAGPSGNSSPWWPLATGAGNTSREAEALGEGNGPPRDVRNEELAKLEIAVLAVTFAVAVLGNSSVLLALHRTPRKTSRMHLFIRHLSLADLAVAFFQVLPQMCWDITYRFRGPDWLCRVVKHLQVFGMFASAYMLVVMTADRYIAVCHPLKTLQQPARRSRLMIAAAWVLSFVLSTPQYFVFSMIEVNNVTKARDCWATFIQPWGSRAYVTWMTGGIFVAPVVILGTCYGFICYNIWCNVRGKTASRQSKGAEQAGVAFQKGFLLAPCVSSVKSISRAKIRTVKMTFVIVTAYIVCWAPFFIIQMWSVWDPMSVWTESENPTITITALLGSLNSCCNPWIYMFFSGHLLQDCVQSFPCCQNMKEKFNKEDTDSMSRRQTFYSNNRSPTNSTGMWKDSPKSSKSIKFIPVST

Row | Structure (SMILES) | IC50 ([1]; read-out: V1a IC50) | IC50 [2] | Papp A→B at 1 h, 10 μM (MDR1 (P-glycoprotein)) | Papp A→B at 1 h, 10 μM [3] | IC50 [1] | IC50 [4] | IC50 [5]
1 | COC(=O)N1Cc2cc(Cl)ccc2-n2c(nnc2C2CC3(C2)CN(c2cccc(C#N)n2)C3)C1 [compound 91, methyl 8-chloro-1-(2-(6-cyanopyridin-2-yl)-2-azaspiro[3.3]heptan-6-yl)-4H-benzo[f][1,2,4]triazolo[4,3-a][1,4]diazepine-5(6H)-carboxylate] | < 100 nM | 500 to 1000 nM | < 7 ×10⁻⁶ cm/s | > 20 ×10⁻⁶ cm/s |  |  | 
2 | CCC1c2nnc(C3CC4(C3)CN(c3ccc(F)cn3)C4)n2-c2ccc(Cl)cc2CN1C(=O)OC (stereo not shown) [compound 197, methyl 8-chloro-4-ethyl-1-(2-(5-fluoropyridin-2-yl)-2-azaspiro[3.3]heptan-6-yl)-4H-benzo[f][1,2,4]triazolo[4,3-a][1,4]diazepine-5(6H)-carboxylate] |  |  | > 20 ×10⁻⁶ cm/s | > 20 ×10⁻⁶ cm/s | 100 to 500 nM |  | 
3 | O=C1OCC2c3nnc(C4CC5(C4)CN(c4ccc(F)cn4)C5)n3-c3ccc(Cl)cc3CN12 (stereo not shown) [compound 200, 7-chloro-3-(2-(5-fluoropyridin-2-yl)-2-azaspiro[3.3]heptan-6-yl)-13,13a-dihydro-9H,11H-benzo[e]oxazolo[3,4-a][1,2,4]triazolo[3,4-c][1,4]diazepin-11-one] |  |  | < 7 ×10⁻⁶ cm/s | > 20 ×10⁻⁶ cm/s | 100 to 500 nM |  | 
4 | CC1c2nnc(C3CC4(C3)CN(c3ncccn3)C4)n2-c2ccc(Cl)cc2CN1C(=O)OC1(C)CC1 (single isomer, unassigned) [Cpd 205A] | < 100 nM | 500 to 1000 nM |  |  |  | > 1000 nM | 
5 | Cc1nc(N2CC3(CC(c4nnc5n4-c4ccc(Cl)cc4CN(C4CC4)C5)C3)C2)ccc1F [compound 229] | < 100 nM | 500 to 1000 nM |  |  |  |  | < 100 nM
6 | CC1c2nnc(C3CC4(C3)CN(c3ccc(F)cn3)C4)n2-c2ccc(Cl)cc2CN1C(=O)OC(C)(C)CF (single isomer, unassigned) [Cpd 206B] | 100 to 500 nM | > 1000 nM |  |  |  | > 1000 nM | 
7 | CC1c2nnc(C3CC4(C3)CN(c3ccc(F)cn3)C4)n2-c2ccc(Cl)cc2CN1C(=O)OC(C)(C)CF (single isomer, unassigned) [Cpd 206A] | < 100 nM | 100 to 500 nM |  |  |  | > 1000 nM | 
8 | CC1c2nnc(C3CC4(C3)CN(c3ncccn3)C4)n2-c2ccc(Cl)cc2CN1C(=O)OC(C)(C)CF (stereo not shown) [compound 196] | < 100 nM | > 1000 nM |  |  |  | > 1000 nM | 
9 | CC(C)OC(=O)N1Cc2cc(Cl)ccc2-n2c(C3CC4(C3)CN(c3cccc(C#N)n3)C4)nnc2C1C (single isomer, unassigned) [Cpd 204A] | < 100 nM | 100 to 500 nM |  |  |  | > 1000 nM | 
10 | COC(=O)N1Cc2cc(Cl)ccc2-n2c(C3CC4(C3)CN(c3ncccn3)C4)nnc2C12CC2 [compound 199] | < 100 nM | > 1000 nM |  |  |  | > 1000 nM | 
